Test results as given in article PMC9871843 (Clinical Kidney Journal, 2022).

Assay: Safety and tolerability
Assay type: in vivo, healthy participants (human)
Conditions: healthy adults, single oral dose
[1] = safety analysis set, by system organ class

C=CC[C@@H]1/C=C(\C)C[C@H](C)C[C@H](OC)[C@H]2O[C@@](O)(C(=O)C(=O)N3CCCC[C@H]3C(=O)O[C@H](/C(C)=C/[C@@H]3CC[C@@H](O)[C@H](OC)C3)[C@H](C)[C@@H](O)CC1=O)[C@H](C)C[C@@H]2OC [Tacrolimus, tacrolimus]
participants in whom adverse events were reported: seven | Participants with any AE (safety analysis set, N as in column head): 7 (22.6) n (%) | Participants with AEs: Cardiac disorders [1]: 0 n (%) | Participants with AEs: Eye disorders [1]: 1 (3.2) n (%) | Participants with AEs: Gastrointestinal disorders [1]: 2 (6.5) n (%) | Participants with AEs: General disorders and administration site conditions [1]: 1 (3.2) n (%) | Participants with AEs: Infections and infestations [1]: 0 n (%) | Participants with AEs: Injury, poisoning and procedural complications [1]: 1 (3.2) n (%) | Participants with AEs: Musculoskeletal and connective tissue disorders [1]: 1 (3.2) n (%) | Participants with AEs: Nervous system disorders [1]: 3 (9.7) n (%) | Participants with AEs: Renal and urinary disorders [1]: 0 n (%) | Participants with AEs: Respiratory, thoracic and mediastinal disorders [1]: 0 n (%)
